{"source": "patent US4752612A", "about": "“Method and percutaneously administering physiologically active agents using an alcohol adjuvant and a solvent” (Nitto Electrical Industrial Co., Ltd., priority 1986, dated 1988)", "key": {"[1]": {"from_the_text": "Rat full thickness skins were used in the diffusion cell method following the method of Michaels, AlChE Journal, 21 [5], 985-996, 1975. The rat skin was mounted in the diffusion cell in a vertical position between the upstream and the downstream compartments; the exposed area of the skin approximated 4.15 cm^2.\nThe skin was excised from the shaved abdominal site of male albino rats weighing 250~300 g, and washed with normal saline solution after the subcutaneous fat was carefully removed with scissors.\nThe active agent/PAEC solution of known concentration was added to the upper compartment of the cell, which was exposed to the epithelial side of the skin and a normal saline solution was placed in the lower compartment.\nThe penetration rate was studied in a thermostated bath at 30° C.\nAs an alternative, the finite dose technique of Franz, Curr. Probl. Dermatol., Vol. 7, p. 58~68 (Karger, Basel, 1978) can also be followed where the rat skin is mounted horizontally in a diffusion cell apparatus and the exposed area of the skin approximates 0.7 cm^2.\nThe active agent/PAEC solution of known concentration was added to the upstream compartment to which the epithelial side of the skin was exposed, and a normal saline solution was added to the downstream compartment.\nLiquid compositions are prepared by firstly mixing Component A with Component B and then blending the active agent in the mixture. In the case that Component B is a solid at ambient temperature or will not homogenously mix with Component A, 20 wt.% of ethylene glycol monobutyl ether based on the weight of Components A and B can be used as an agent for assisting dissolution.\nThe flux of the active agent is given in terms of μg/cm^2 /8 hours. Twenty-five volume percent Component A with respect to Component A plus Component B volume was used in the composition along with 2.5 weight percent of the active agent. For purposes of comparison, in certain instances the results for solvents alone and adjuvants alone are given.\nA propranolol system was formulated as follows: […] of propranolol was dissolved in 1 ml of 25 volume % dodecanol in N-methyl-2-pyrrolidone (based on total volume) and in 1 ml of ethyl alcohol as a comparison study.\nIn the following Example 8, in vitro transdermal penetration was again analyzed using rat full thickness skins following the method of Michaels, AIChE Journal, 21, [53], pp. 985-996 (1975), according to the procedure earlier described. The sample volume was 1 ml unless otherwise indicated and flux of the active agent is given in μg/cm^2 /8 hours. All percents are volume percents based on the total volume of the system unless otherwise indicated."}, "[2]": {"tested_on": "rhesus monkey", "experiment": "Pharmacological (behavioral) effect in animal model after percutaneous administration", "type": "in vivo", "settings": "blood level approximately 100 ng/ml plasma"}, "[3]": {"experiment": "In vivo rhesus monkey test, plasma level after topical application", "settings": "for concentration at 3 h / concentration at 5 h / concentration at 7 h: topical", "experimental": "If desired, an in vivo rhesus monkey test as described below may also be used to determine the effect of the PAEC combinations of the present invention.\nMale rhesus monkeys weighing 10-14 Kg each can be used as the subject. An appropriate area of the monkey's chest is shaved 24 hours before drug application.\nDrug formulations comprising the PAEC are applied to a certain area of the chest. The monkey is restrained in a chair to prevent it from touching its chest.\nBlood samples are taken at appropriate intervals after the application. The heparinized blood is centrifuged, and the plasma removed and stored at -20° C. until analyzed.\nIn the following Examples 15 and 16, the in vivo monkey regimen earlier described was used to determine the effect of the PAEC combinations of the present invention, the regimen being modified as follows:\nMale rhesus monkeys weighting 8 to 13 Kg wee used as the subject and an appropriate area of the monkey's upper back was shaved 24 hours before drug application;\nthe drug formulations were applied to 49 cm^2 of the upper back of the monkey; and\nplasma samples taken at appropriate intervals were analyzed by conventional HPLC.\n1 ml of 25% 1-dodecanol and 75% MP containing 200 mg of propanolol was impregnated into a polyester non-woven cloth (49 cm^2; 230 mg) and applied to the upper back area of the monkey.\nThe application site was occluded with Saran® film.\nThe procedure of Example 15 was followed except for using Indomethacin, a NSAID, in place of propranolol."}}, "note": "Where a name gives a salt, the structure may show the parent alone. Read-outs that look alike come from different tables or passages of the source."}
{"smiles": "CCN(CC)CCNC(=O)c1cc(Cl)c(N)cc1OC", "note": "[Metoclopramide (free base)]", "values": [{"measurement": "Flux", "setting": "[1]", "value": 2694, "unit": "μg/cm^2 /8 hrs"}]}
{"smiles": "COC(=O)C1=C(C)NC(C)=C(C(=O)OC)C1c1ccccc1[N+](=O)[O-]", "note": "[Nifedipine, 1,4-dihydro-2,6-dimethyl-4-(2-nitrophenyl)-3,5-pyridine dicarboxylic acid dimethyl ester]", "values": [{"measurement": "flux (Nifedipine)", "setting": "[1]; (a) 25 mg + 1 ml of 25% 1-dodecanol and 75% MP", "value": 480, "unit": "μg/cm^2 /8 hours"}, {"measurement": "flux (Nifedipine)", "setting": "[1]; (b) 25 mg + 1 ml of 25% oleyl alcohol and 75% MP", "value": 394, "unit": "μg/cm^2 /8 hours"}, {"measurement": "flux (Nifedipine)", "setting": "[1]; (c) 25 mg + 1 ml of 25% 2-octyl-1-dodecanol and 75% MP", "value": 246, "unit": "μg/cm^2 /8 hours"}, {"measurement": "flux (Nifedipine)", "setting": "[1]; (d) control: 25 mg + 1 ml of MP", "value": 30, "unit": "μg/cm^2 /8 hours"}]}
{"smiles": "CC(C)Cc1ccc(C(C)C(=O)O)cc1", "note": "(stereo not drawn) [Ibuprofen, p-isobutylhydratropic acid<2',4'-isobutylphenyl propionic acid]", "values": [{"measurement": "flux (Ibuprofen)", "setting": "[1]; (a) 25 mg + 1 ml of 25% 1-dodecanol and 75% N-methyl pyrrolidone", "value": 307, "unit": "μg/cm^2 /8 hours"}, {"measurement": "flux (Ibuprofen)", "setting": "[1]; (b) 25 mg + 1 ml of 25% 1-dodecanol in 75% N-methyl piperidone", "value": 266, "unit": "μg/cm^2 /8 hours"}, {"measurement": "flux (Ibuprofen)", "setting": "[1]; (c) 25 mg + 1 ml of 25% 1-dodecanol in 75% N-methyl caprolactum", "value": 148, "unit": "μg/cm^2 /8 hours"}]}
{"smiles": "CN1C(=O)CN=C(c2ccccc2)c2cc(Cl)ccc21", "note": "[Diazepam, 7-Chloro-1,3-dihydro-1-methyl-5-phenyl-2H-1,4-benzodiazepine-2-one]", "values": [{"measurement": "pharmacological (behavioral) signs of therapeutic effectiveness", "setting": "[2]", "value": "produces pharmacological (behavioral) signs of therapeutic effectiveness"}]}
{"smiles": "COc1ccc2c(c1)c(CC(=O)O)c(C)n2C(=O)c1ccc(Cl)cc1", "note": "[Indomethacin, 1-(p-chlorobenzoyl)-5-methoxy-2-methylindole-3-acetic acid]", "values": [{"measurement": "flux (Indomethacin)", "setting": "[1]; (a) 25 mg + 1 ml of 25% linalool and 75% MP", "value": 98, "unit": "μg/cm^2 /8 hours"}, {"measurement": "flux (Indomethacin)", "setting": "[1]; (b) 25 mg + 1 ml of 25% 1-dodecanol and 75% MP", "value": 236, "unit": "μg/cm^2 /8 hours"}, {"measurement": "flux (Indomethacin)", "setting": "[1]; (c) 25 mg + 1 ml of 25% oleyl alcohol and 75% MP", "value": 236, "unit": "μg/cm^2 /8 hours"}, {"measurement": "Plasma Level", "setting": "[3]; rhesus monkey, in vivo, 60 min", "value": 0, "unit": "ng/ml Plasma"}, {"measurement": "concentration at 3 h", "setting": "[3]; rhesus monkey, in vivo", "value": 270, "unit": "ng/mL"}, {"measurement": "concentration at 5 h", "setting": "[3]; rhesus monkey, in vivo", "value": 495, "unit": "ng/mL"}, {"measurement": "concentration at 7 h", "setting": "[3]; rhesus monkey, in vivo", "value": 336, "unit": "ng/mL"}]}
{"smiles": "CC(C)NCC(O)COc1cccc2ccccc12", "note": "(stereo not drawn) [Propranolol]", "values": [{"measurement": "Plasma Level", "setting": "[3]; 1 hr, 200 mg in 1 ml of 25% 1-dodecanol and 75% MP, 49 cm^2 upper back, occluded", "value": 0, "unit": "ng/ml Plasma"}, {"measurement": "concentration at 3 h", "setting": "[3]; rhesus monkey, plasma, 3 hr, 200 mg in 1 ml of 25% 1-dodecanol and 75% MP, 49 cm^2 upper back, occluded", "value": 55, "unit": "ng/mL"}, {"measurement": "concentration at 5 h", "setting": "[3]; rhesus monkey, plasma, 5 hr, 200 mg in 1 ml of 25% 1-dodecanol and 75% MP, 49 cm^2 upper back, occluded", "value": 85, "unit": "ng/mL"}, {"measurement": "concentration at 7 h", "setting": "[3]; rhesus monkey, plasma, 7 hr, 200 mg in 1 ml of 25% 1-dodecanol and 75% MP, 49 cm^2 upper back, occluded", "value": 80, "unit": "ng/mL"}]}
{"smiles": "CCN(CC)CCNC(=O)c1cc(Cl)c(N)cc1OC", "note": "[Metoclopramide HCl]", "values": [{"measurement": "Flux", "setting": "[1]", "value": 3280, "unit": "μg/cm^2 /8 hrs"}]}
